Experimental data as given in US20060040870A1, “Enhancement of apoptosis by caspase-9 inhibitors” (priority 2004, published 2006).
The star is where a group is joined. Cbz = O=C(OCc1ccccc1)*; CH2F = FC*

Tests used:
leukemia/lymphoma cells = assay: Pro-apoptotic activity of caspase inhibitor sequences (Table 2); assay type: cell-based; set-up: key: “−” is no activity; ++++ is maximum activity
Source text: Caspases are constitutively express in cells, and are usually in their pro-form. In response to an incident, such as irradiation or chemotherapy, the pro-form of the caspase is converted into the activated state. Certain compounds are known that can inhibit caspases. For example, the pan-caspase (PCi) VAD can block all caspases. […] For example, C2i inhibits caspase-2. This particular inhibitor is very dose dependent.

[1] = system: caspase-9 deficient BLIN-4L; assay: Apoptotic sensitivity of BLIN-4L made deficient in caspase-9 by siRNA, Annexin V; conditions: Annexin V+ events minus DMSO
BLIN-3 cells [2] = assay: Loss of mitochondrial transmembrane potential (TMRE) and YO-PRO permeability in BLIN-3; assay type: cell-based, human; conditions: BLIN-3 removed from adherent fibroblasts, 50 μM, compared to DMSO
Description: Numbers in the histograms indicate the percentage of PI^- cells that underwent a loss of Δψm. Numbers in the contour plots indicate the percentage of Annexin V^+/PI^- cells. […] Numbers in the contour plots indicate the percentage of YO^- PRO^+/PI^- cells. Numbers in the histograms indicate the percentage of PI^- cells that underwent a loss of Δψm. Flow cytometry. Quantitation of apoptotic events was conducted using a FACS Calibur (BD Immunocytometry Systems). All analyses were conducted on cells with lymphoid light scatter characteristics (i.e., low to medium forward scatter and low 90° side scatter). i. Mitochondrial transmembrane potential (Δψm). The cationic lipophilic fluorescent dye tetramethylrhodamine, ethyl ester, perchlorate (TMRE) was purchased from Molecular Probes, Inc. (Eugene, Oreg.). TMRE has a high degree of membrane permeability and accumulates into mitochondria in accord with the Nernstian equation (Farkas Biophys J. 1989;56:1053-1069). Cells were washed once and re-suspended to 0.5-1.0×10^6/ml in X-VIVO 10. TMRE was added to a final concentration of 50 nM and the cells were incubated in the dark at 37° C. for 15 minutes. […] ii. YO-[…]. The green fluorescent DNA intercalant dye YO-PRO-1 (Idziorek J Immunol Methods. 1995;185:249-258) was purchased from Molecular Probes as the Vybrant Apoptosis Assay Kit #4. […]

CD19+ B-cell precursors = assay: Annexin V staining of sorted cord blood-derived CD19+ B-cell precursors removed from MS-5 stroma; assay type: cell-based, human; conditions: cultured 18 hours, DMSO control 46.5 ± 1.4, Time 0 1.5
Description: Normal B-lineage cells. CD19+ B-lineage cells were derived from CD34+ human cord blood stem cells plated on the murine stromal cell line MS-5 (Itoh Exp Hematol. 1989;17:145-153). MS-5 stromal cells were kindly provided by Dr. Paul Kincade (University of Oklahoma Medical Research Foundation), following permission from Professor K. John Mori (Niigata University, Japan). FACS-purified CD34+/CD38+/lineage—cord blood hematopoietic stem cells were plated onto confluent, non-irradiated MS-5 stromal cells in 96-well flat-bottom plates (200 cells/well) containing Minimal Essential Medium supplemented with 10% FBS. Stem cell factor and G-CSF were added at 10 ng/ml (twice weekly) to enhance the emergence of CD19+ B-lineage cells (Nishihara Eur J Immunol. 1998;28:855-864; Ohkawara Leukemia. 1998;12:764-771). […] Wells were then pooled, stained with PE-conjugated anti-CD 19 + propidium iodide (PI), and sorted on a FACSVantage (BD Immunocytometry Systems, San Jose, Calif.). Cord blood CD34+/CD38+/lineage—cells were provided by Valerie McCullar and Dr. Jeff Miller of the University of Minnesota Cancer Center in accordance with the University of Minnesota Institutional Review Board on Human Subjects.
Flow cytometry. Quantitation of apoptotic events was conducted using a FACS Calibur (BD Immunocytometry Systems). […]

[3] = system: PARP (caspase-3/caspase-7 substrate); assay: Western blotting of PARP cleavage in BLIN-3 and BLIN-4L; assay type: cell-based, human; conditions: overnight incubation of BLIN-3 and BLIN-4L cells, 50 μM
Description: Western blotting. This method was conducted essentially as previously described.^20 The antibodies used were: rabbit anti-caspase-2 (catalog # sc-625, Santa Cruz Biotechnology Inc., Santa Cruz, Calif.), rabbit anti-caspase-3 (catalog # 9661, Upstate Cell Signaling Solutions, Waltham, Mass.), rabbit anti-caspase-6 (catalog # 9761, Upstate), rabbit anti-caspase-9 (catalog # 9502, Upstate), mouse anti-PARP (catalog # 556494, Pharmingen), and rabbit anti-Bid (catalog # AF846, R&D Systems). The antibodies to caspase-2 and caspase-9 were generated to the procaspase isoforms, whereas the antibodies to caspase-3 and caspase-6 were generated to cleavage products.
As expected, inclusion of 50 μM PCi had no effect. The degree of PARP cleavage in the presence of C9i (greater in BLIN-3 than BLIN-4L) correlated with the percentage of Annexin V+ cells (FIG. 3).

BLIN-3 cells [4] = assay: Apoptosis by Annexin V staining and flow cytometry, BLIN-3; assay type: cell-based, human; conditions: BLIN-3 removed from adherent fibroblasts, 50 μM
Description: (§1) Flow cytometry. Quantitation of apoptotic events was conducted using a FACS Calibur (BD Immunocytometry Systems). All analyses were conducted on cells with lymphoid light scatter characteristics (i.e., low to medium forward scatter and low 90° side scatter).
(§2) iii. Annexin V. FITC-labeled Annexin V (BD Pharmingen, San Diego, Calif.) was used to detect external phosphatidylserine residues appearing on the external surface of early apoptotic cells (Koopman Blood. 1994;84:1415-1420). Cells were stained according to the manufacturers recommendations.
(§3) General experimental strategy. BLIN cell lines were removed from fibroblast monolayers, washed once and resuspended to 7.5×10^5/ml in X-VIVO 10. Two hundred μL of resuspended cells were added to 96-well flat-bottom microtiter plates (ISC Bioexpress, Kaysville, Vt.), followed by 0.5-1.0 μL of caspase inhibitors in DMSO. An identical volume of DMSO alone was added to separate wells as a vehicle control. This final DMSO concentration of 0.25-0.5% vol/vol had no adverse affect on any of the BLIN cell lines. At the indicated times the entire content of individual wells was harvested and stained in the fluorescent protocols described above.
The inventors carried out experiments to test the influence of specific amino acid substitutions on the proapoptotic activity Z-LEHD-fmk. Cells were cultured for 24 hours with various μM concentrations of Z-LEDH-fmk or single amino acid substitution of the parent peptide. All values in the following Table 3 represent the percentage of total Annexin V+ cells (PI+ and PI−) minus the percentage present in culture with DMSO alone (BLIN-2=3%; BLIN-3+7%; BLIN4L=5%).

BLIN cell lines = assay: Enhancement of apoptosis in BLIN cell lines (flow cytometry); assay type: cell-based, human; conditions: BLIN cell lines
Description: as §1
i. Mitochondrial transmembrane potential (Δψm). The cationic lipophilic fluorescent dye tetramethylrhodamine, ethyl ester, perchlorate (TMRE) was purchased from Molecular Probes, Inc. (Eugene, Oreg.). TMRE has a high degree of membrane permeability and accumulates into mitochondria in accord with the Nernstian equation (Farkas Biophys J. 1989;56:1053-1069). Cells were washed once and re-suspended to 0.5-1.0×10^6/ml in X-VIVO 10. TMRE was added to a final concentration of 50 nM and the cells were incubated in the dark at 37° C. for 15 minutes. Cells were then washed 2× in PBS, resuspended in PBS containing 2 μg/ml of propidium iodide (PI), and immediately analyzed. The protonophore […] (50 μM, CCCP, Sigma) was used as a positive control to effect loss of Δψm in 100% of cells.
ii. YO-PRO-1. The green fluorescent DNA intercalant dye YO-PRO-1 (Idziorek J Immunol Methods. 1995;185:249-258) was purchased from Molecular Probes as the Vybrant Apoptosis Assay Kit #4. Dual staining with YO-PRO and PI allows for the detection of early apoptotic cells (YO-PRO+/PI−) that have undergone initial changes in permeability to small molecules. Cells were stained according to the manufacturers recommendations.
as §2, §3

CD33+ myeloid cells = assay: Annexin V staining of sorted cord blood-derived CD33+ myeloid cells removed from MS-5 stroma; assay type: cell-based, human; conditions: cultured 18 hours, DMSO control 27.9 ± 3.9, Time 0 <10

Row | Compound | Pro-apoptotic Activity (after 24 hours) (leukemia/lymphoma cells) | other results
1 | LEED (printed: Leu-Glu-Glu-Asp) [C9i/H > E, variant of Z-LEHD-fmk, Leu-Glu-Glu-Asp] | − | 
2 | CN[C@@H]1C[C@H]2O[C@@](C)([C@@H]1OC)n1c3ccccc3c3c4c(c5c6ccccc6n2c5c31)C(=O)NC4 [staurosporine] |  | apoptotic response of caspase-9 deficient BLIN-4L compared with control siRNA treated cells [1]: significantly more sensitive
3 | Z-DEVD-fmk [C3i, reference compound] | − | 
4 | Cbz-VEID-CH2F [C6i, reference compound] | − | 
5 | LEAD [C9i/H > A] | − | 
6 | Cbz-VDVAD-CH2F [C2i, reference compound] | − | 
7 | COc1cc([C@@H]2c3cc4c(cc3[C@@H](O[C@@H]3O[C@@H]5CO[C@@H](C)O[C@H]5[C@H](O)[C@H]3O)[C@H]3COC(=O)[C@H]23)OCO4)cc(OC)c1O [etoposide] |  | apoptotic response of caspase-9 deficient BLIN-4L compared with control siRNA treated cells [1]: no difference
8 | LEHD [C91/ΔFMK] | − | 
9 | WEHD (printed: Trp-Glu-His-Asp) [C9i/L > W, variant of Z-LEHD-fmk, Trp-Glu-His-Asp] | ++++ | 
10 | Z-VAD-fmk [PCi, reference compound] | − | loss of Δψm (TMRE) (BLIN-3 cells [2]): did not prevent loss of Δψm; percentage of total Annexin V+ cells (PI+ and PI−), mean ± SD (CD19+ B-cell precursors): 39.5 ± 1.8 %; cleavage of the caspase-3/caspase-7 substrate PARP [3]: had no effect; appearance of Annexin V+ cells (BLIN-3 cells [4]): completely blocked; enhancement of apoptosis (BLIN cell lines): did not enhance apoptosis; percentage of total Annexin V+ cells (PI+ and PI−), mean ± SD (CD33+ myeloid cells): 18.0 ± 3.9 %
